Assay results from patent US20110039770A1, “INHIBITORS OF PROTEIN KINASE C ISOFORMS AND USES THEREOF” (PHARMAGAP INC., priority 2005, published 2011).
Where a SMILES comes first, the peptide text is derived from it. The star is where a group is joined. PNA(A) = NCCN(CC(=O)*)C(=O)Cn1cnc2c(N)ncnc21

What was measured:
[1] = Flocculation of blood serum and plasma component; details: pigs, mice and human
Description: In order to prevent this flocculation and increase the efficacy of the TIM compounds, advantage was taken of the properties of TPGS (alpha tocopherol polyethylene glycol succinate). The adjuvant may also protect the TIM compounds from enzymatic degradation.

PKC beta 1 = PKC beta 1 (Homo sapiens, UniProt P05771); assay: PKC isoform protein levels in cancer cell lines after TIM 10 (Western blot); assay type: cell-based; set-up: endogenous in cells; details: 5 mM by pinocytic influx, 24 hrs
Chain of PKC beta 1 (P05771 whole entry, canonical isoform): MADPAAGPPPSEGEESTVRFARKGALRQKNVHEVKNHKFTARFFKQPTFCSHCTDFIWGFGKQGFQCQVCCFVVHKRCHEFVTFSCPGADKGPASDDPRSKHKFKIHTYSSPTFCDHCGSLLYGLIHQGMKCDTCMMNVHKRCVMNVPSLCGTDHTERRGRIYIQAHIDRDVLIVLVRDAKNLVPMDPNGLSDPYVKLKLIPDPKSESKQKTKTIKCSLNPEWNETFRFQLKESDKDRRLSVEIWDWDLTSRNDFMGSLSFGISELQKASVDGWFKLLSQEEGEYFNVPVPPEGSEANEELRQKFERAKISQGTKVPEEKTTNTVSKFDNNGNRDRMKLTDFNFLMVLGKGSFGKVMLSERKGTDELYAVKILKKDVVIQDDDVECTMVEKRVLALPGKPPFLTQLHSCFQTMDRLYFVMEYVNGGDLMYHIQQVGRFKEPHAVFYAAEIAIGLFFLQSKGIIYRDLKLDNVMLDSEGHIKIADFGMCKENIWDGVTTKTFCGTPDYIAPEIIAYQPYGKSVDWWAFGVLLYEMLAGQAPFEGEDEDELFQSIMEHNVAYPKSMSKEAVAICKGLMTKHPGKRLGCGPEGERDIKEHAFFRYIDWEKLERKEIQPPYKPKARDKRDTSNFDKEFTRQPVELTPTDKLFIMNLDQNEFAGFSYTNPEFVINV
Description: (§1) The effect of compound TIM 10 on the levels of protein for various PKC isoforms was assessed as generally described below in the following human cancer cell lines: MDA MB-231 breast adenocarcinoma cells (ATCC HTB-26); T24 bladder transitional cell carcinoma (ATCC HTB-4); SKOV-3 ovary adenocarcinoma (ATCC HTB-77); MCF-7 breast adenocarcinoma (ATCC HTB-22); Capan-2 pancreatic adenocarcinoma (ATCC HTB-80); NCI-H661 NSCL large cells (ATCC HTB-183); Calu-6 probable lung anaplastic carcinoma (ATCC HTB-56) and Calu-3 lung adenocarcinoma (ATCC HTB-55).
(§2) Cells representative of the different cancer types were cultured according to ATCC instructions. At subconfluence, the cells were trypsinized and compound 10 (5 mM) was incorporated into the cells by pinocytic influx endocytosis according to the manufacturer's instructions (Molecular Probe). Matching controls were treated accordingly except that vehicle was incorporated instead of compound 10. Following pinocytic influx, the cells were seeded and allowed to grow in fresh medium for 24 hrs. The cell cultures were further extracted using RIPA lysis buffer according to standard protocol. The protein content of each lysate was measured using Bradford protein estimation procedure (BioRad) and normalized. Following addition of sample buffer, the proteins from 15 μl of each extract were separated by electrophoresis, electro-transferred to nitrocellulose membranes and the various isoforms of PKC were detected using appropriate antibodies (Santa Cruz Biotechnology, Inc., CA). The relative intensity of bands of the expected molecular weight was estimated after scanning and the % decrease in the band intensity relative to control was calculated.

PKC delta = PKC delta (Homo sapiens, UniProt Q05655); assay: as above; assay type: cell-based; set-up: endogenous in cells; details: 5 mM by pinocytic influx, 24 hrs
Chain of PKC delta (Q05655 whole entry): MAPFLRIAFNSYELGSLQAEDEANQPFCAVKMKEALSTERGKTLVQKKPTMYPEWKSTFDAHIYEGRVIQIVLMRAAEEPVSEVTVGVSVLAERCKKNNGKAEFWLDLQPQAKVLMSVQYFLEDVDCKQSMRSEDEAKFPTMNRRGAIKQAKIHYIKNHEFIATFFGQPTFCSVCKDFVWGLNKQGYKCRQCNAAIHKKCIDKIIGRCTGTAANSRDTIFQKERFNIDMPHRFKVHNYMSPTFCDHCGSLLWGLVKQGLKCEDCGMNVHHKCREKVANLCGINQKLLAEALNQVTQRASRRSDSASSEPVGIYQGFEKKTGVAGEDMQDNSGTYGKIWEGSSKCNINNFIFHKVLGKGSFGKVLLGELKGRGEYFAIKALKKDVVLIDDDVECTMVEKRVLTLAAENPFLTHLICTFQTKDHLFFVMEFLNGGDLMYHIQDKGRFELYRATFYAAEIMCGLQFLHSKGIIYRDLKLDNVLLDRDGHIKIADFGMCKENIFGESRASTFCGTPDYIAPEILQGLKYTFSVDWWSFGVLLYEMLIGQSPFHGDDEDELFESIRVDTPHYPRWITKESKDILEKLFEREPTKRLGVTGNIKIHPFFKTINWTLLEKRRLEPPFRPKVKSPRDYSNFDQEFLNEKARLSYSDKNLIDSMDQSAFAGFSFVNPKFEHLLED
Description: as §1, §2

PKC epsilon = molecular target: T1, PKC epsilon (Homo sapiens, UniProt Q02156); assay: as above; assay type: cell-based; set-up: endogenous in cells; details: 5 mM by pinocytic influx, 24 hrs
T1 sequence (Q02156 1-737): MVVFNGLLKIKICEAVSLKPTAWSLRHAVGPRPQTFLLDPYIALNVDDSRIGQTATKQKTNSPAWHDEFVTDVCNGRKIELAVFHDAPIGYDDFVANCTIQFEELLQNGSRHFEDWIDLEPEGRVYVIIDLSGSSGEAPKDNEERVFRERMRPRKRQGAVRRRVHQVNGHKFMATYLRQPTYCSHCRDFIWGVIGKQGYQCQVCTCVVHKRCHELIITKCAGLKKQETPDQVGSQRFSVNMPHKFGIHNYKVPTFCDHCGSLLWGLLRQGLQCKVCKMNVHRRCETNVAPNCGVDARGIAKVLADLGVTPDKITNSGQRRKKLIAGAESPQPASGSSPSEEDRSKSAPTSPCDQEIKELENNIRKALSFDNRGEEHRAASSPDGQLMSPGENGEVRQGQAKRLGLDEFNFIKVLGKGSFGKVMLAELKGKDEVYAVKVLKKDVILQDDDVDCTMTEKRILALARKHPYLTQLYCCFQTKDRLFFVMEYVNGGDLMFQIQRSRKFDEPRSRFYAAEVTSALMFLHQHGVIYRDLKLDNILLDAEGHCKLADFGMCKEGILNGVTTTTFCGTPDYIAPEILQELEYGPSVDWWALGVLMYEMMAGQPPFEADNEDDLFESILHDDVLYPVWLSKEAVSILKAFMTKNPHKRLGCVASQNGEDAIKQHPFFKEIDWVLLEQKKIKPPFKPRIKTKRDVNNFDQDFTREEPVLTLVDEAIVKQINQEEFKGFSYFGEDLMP
Description: as §1, §2

PKC zeta = molecular target: T2, PKC zeta (Homo sapiens, UniProt Q05513); assay: as above; assay type: cell-based; set-up: endogenous in cells; details: 5 mM by pinocytic influx, 24 hrs
T2 sequence (Q05513 1-592): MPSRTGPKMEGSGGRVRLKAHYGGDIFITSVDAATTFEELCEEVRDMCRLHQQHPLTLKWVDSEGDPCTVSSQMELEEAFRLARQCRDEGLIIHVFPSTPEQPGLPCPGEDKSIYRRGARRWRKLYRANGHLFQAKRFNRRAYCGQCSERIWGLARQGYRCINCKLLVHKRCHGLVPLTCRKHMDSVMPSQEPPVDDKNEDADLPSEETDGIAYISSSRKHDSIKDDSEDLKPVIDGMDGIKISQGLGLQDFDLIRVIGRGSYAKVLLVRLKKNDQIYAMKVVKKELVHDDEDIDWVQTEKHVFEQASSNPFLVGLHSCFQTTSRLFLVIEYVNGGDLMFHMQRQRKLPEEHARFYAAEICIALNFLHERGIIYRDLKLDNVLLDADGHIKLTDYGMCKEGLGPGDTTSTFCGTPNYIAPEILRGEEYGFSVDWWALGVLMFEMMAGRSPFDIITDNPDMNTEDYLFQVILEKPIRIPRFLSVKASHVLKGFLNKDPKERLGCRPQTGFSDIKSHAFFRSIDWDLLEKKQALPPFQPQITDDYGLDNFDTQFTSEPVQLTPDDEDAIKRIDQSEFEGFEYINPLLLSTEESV
Description: as §1, §2

PKC alpha = PKC alpha (Homo sapiens, UniProt P17252); assay: as above; assay type: cell-based; set-up: endogenous in cells; host or cells: MDA MB-231, T24, SKOV-3, MCF-7, Capan-2, NCI-H661, Calu-6, Calu-3; details: 5 mM by pinocytic influx, 24 hrs
Description: as §1, §2

SMILES: CC[C@H](C)[C@H](NC(=O)[C@H](CO)NC(=O)[C@@H](NC(=O)CNC(=O)[C@@H](NC(=O)[C@H](CC(C)C)NC(=O)[C@H](CC(N)=O)NC(=O)[C@H](CCC(N)=O)NC(=O)[C@H](C)NC(=O)[C@H](CC(=O)O)NC(=O)[C@H](CCCCN)NC(=O)CNC(=O)CNC(=O)CNC(=O)CNC(=O)CNC(=O)CNC(=O)CNC(=O)[C@H](CC(C)C)NC(=O)[C@H](CCCNC(=N)N)NC(=O)[C@H](Cc1ccccc1)NC(=O)[C@H](CCCCNC(=O)CN(CCN)C(=O)Cn1cnc2c(N)ncnc21)NC(=O)[C@H](CCCNC(=N)N)NC(=O)[C@H](CCCNC(=N)N)NC(=O)[C@H](Cc1ccccc1)NC(C)=O)[C@@H](C)CC)[C@@H](C)CC)C(N)=O [TIM 10] (Ac-FRRK(PNA(A))FRLGGGGGGGKDAQNLIGISI-NH2)
- flocculation of a component of blood serum and plasma [1]: cause flocculation
- % decrease PKC-βI band intensity relative to control (PKC beta 1; Capan-2): 17.5%
- % decrease PKC-βI band intensity relative to control (PKC beta 1; H661): 3.0%
- % decrease PKC-βI band intensity relative to control (PKC beta 1; MCF-7): 0.0%
- % decrease PKC-βI band intensity relative to control (PKC beta 1; MDA-MB231): 0.0%
- % decrease PKC-δ band intensity relative to control (PKC delta; Calu-3): 22.2%
- % decrease PKC-δ band intensity relative to control (PKC delta; Calu-6): 18.9%
- % decrease PKC-δ band intensity relative to control (PKC delta; Capan-2): 53.3%
- % decrease PKC-δ band intensity relative to control (PKC delta; H661): 0.0%
- % decrease PKC-δ band intensity relative to control (PKC delta; MCF-7): 21.5%
- % decrease PKC-δ band intensity relative to control (PKC delta; MDA-MB231): 36.6%
- % decrease PKC-δ band intensity relative to control (PKC delta; SK-OV-3): 0.0%
- % decrease PKC-δ band intensity relative to control (PKC delta; T24): 62.2%
- % decrease PKC-ε band intensity relative to control (PKC epsilon; Capan-2): 0.0%
- % decrease PKC-ε band intensity relative to control (PKC epsilon; MCF-7): 0.0%
- % decrease PKC-ε band intensity relative to control (PKC epsilon; MDA-MB231): 0.0%
- % decrease PKC-ζ band intensity relative to control (PKC zeta; Capan-2): 0.0%
- % decrease PKC-ζ band intensity relative to control, Band 1 (PKC zeta; H661, Band 1): 13.4%
- % decrease PKC-ζ band intensity relative to control, Band 2 (PKC zeta; H661, Band 2): 0.0%
- % decrease PKC-ζ band intensity relative to control (PKC zeta; MCF-7): 7.3%
- % decrease PKC-ζ band intensity relative to control (PKC zeta; MDA-MB231): 0.0%
- % decrease PKC-ζ band intensity relative to control (PKC zeta; T24): 0.0%
- % decrease PKC-α band intensity relative to control (PKC alpha; Calu-3): 21.8%
- % decrease PKC-α band intensity relative to control (PKC alpha; Calu-6): 57.8%
- % decrease PKC-α band intensity relative to control (PKC alpha; Capan-2): 53.4%
- % decrease PKC-α band intensity relative to control (PKC alpha; H661): 28.1%
- % decrease PKC-α band intensity relative to control (PKC alpha; MCF-7): 12.0%
- % decrease PKC-α band intensity relative to control (PKC alpha; MDA-MB231): 36.6%
- % decrease PKC-α band intensity relative to control (PKC alpha; SK-OV-3): 63.4%
- % decrease PKC-α band intensity relative to control (PKC alpha; T24): 42.5%
